Data on 25 compounds can be found in paper PMC8160813, “Design, Synthesis, and Evaluation of Dihydropyranopyrazole Derivatives as Novel PDE2 Inhibitors for the Treatment of Alzheimer’s Disease” (Molecules, 2021).

The target of the experiment is T1, PDE2A (catalytic domain, 580–919) (Homo sapiens, UniProt O00408).
T1 construct: made in house; host or cells: E. coli BL21 (CodonPlus)
In words: In vitro PDE2 enzymatic inhibition assay (3H-cGMP substrate). Format: biochemical. Particulars: for inhibition at 0.5 µM: read-out: Inhibition Ratio (%) 0.5 μM; for inhibition at 0.1 µM: compound at 0.1 μM, read-out: Inhibition Ratio (%) 0.1 μM; for IC50: means ± SD of three experiments, 3H-cGMP, 25 °C, 15 min, read-out: IC50 (nM) against PDE2. On the procedure: Purification and expression of the recombinant pET15b-PDE2A plasmid (catalytic domain, 580–919) was performed following our previously reported method. The plasmid pET15b-PDE2A (catalytic domain, 580–919) was transferred to thawed competent E. coli BL21 cells (CodonPlus, Agilent Technologies, Santa Clara, CA, USA), which were grown in 2XYT medium with 100 μg/mL ampicillin and 20 μg/mL chloramphenicol at 37 °C until OD600 = 0.6–0.8. Then, 0.1 mM isopropylthiogalactoside was added for induction, and protein expression was induced by continuing to grow the cells at 16 °C for 24 h. After that, bacteria were collected by centrifugation and frozen overnight at −20 °C. The bacteria containing the recombinant plasmid of the target protein were subjected to cell disruption and passed through a Ni-NTA agarose affinity column, Q-Sepharose ion-exchange column and other steps. The purity can be 95% or more, and a typical purification batch produces 10–20 mg of PDE2A protein from 1.0 L of cell culture.
Using the appropriate concentration of ^3H-cGMP as the substrate, different compound solutions were added to the test group, DMSO was added to the negative control and blank control groups, and EHNA was added to the positive control group, followed by protein solution (the proteins were all diluted with Assay Buffer); Assay Buffer was added to the blank group. The enzymatic reaction was performed at room temperature (25 °C) for 15 min, and then, 0.2 M ZnSO4 was added to inactivate PDE2 and to stop the reaction. Then, 0.2 N Ba(OH)2 solution was added to precipitate the reaction product, and unreacted ^3H-cGMP remained in the supernatant. After mixing the system, it was centrifuged. The radioactivity of the supernatant was measured with a liquid scintillation counter, and the inhibitory activity of the compound against PDE2 was calculated. The above test was repeated three times (the IC50 test generally used 9 concentrations, and the single-point test was directly diluted with DMSO to the required concentration).

T1 sequence (O00408 580-919): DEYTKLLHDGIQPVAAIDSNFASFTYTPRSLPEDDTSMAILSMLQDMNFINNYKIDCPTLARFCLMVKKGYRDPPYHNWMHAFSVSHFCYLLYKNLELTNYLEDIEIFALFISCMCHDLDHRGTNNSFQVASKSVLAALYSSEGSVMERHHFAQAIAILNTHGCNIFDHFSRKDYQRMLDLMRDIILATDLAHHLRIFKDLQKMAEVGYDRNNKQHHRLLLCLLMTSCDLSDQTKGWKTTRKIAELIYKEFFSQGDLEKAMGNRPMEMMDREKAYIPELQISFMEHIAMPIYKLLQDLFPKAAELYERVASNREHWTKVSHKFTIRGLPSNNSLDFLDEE

Regarding `COc1ccc(OCc2ccc(C(F)(F)F)cc2)c(C2C(C#N)=C(N(C)C)Oc3[nH]nc(C)c32)c1` (stereo not shown) [Compound 16, 6-(Dimethylamino)-4-(5-methoxy-2-((4-(trifluoromethyl)benzyl)oxy)phenyl)-3-methyl-1,4-dihydropyrano[2,3-c]pyrazole-5-carbonitrile], the inhibition at 0.5 µM (PDE2, compound at 0.5 μM) stood at 9.6%.

Regarding `COc1ccc(OCc2ccccc2)c(C2C(C#N)=C(N)Oc3[nH]nc(C)c32)c1` (stereo not shown) [Compound 11d, 6-Amino-4-(2-(benzyloxy)-5-methoxyphenyl)-3-methyl-1,4-dihydropyrano [2,3-c] pyrazole-5-carbonitrile], the inhibition at 0.5 µM (PDE2, compound at 0.5 μM) is 17.7%.

The IC50 is the concentration at which inhibition is half-maximal. On to `COc1ccc(COc2ccc(OC)cc2C2C(C#N)=C(N)Oc3[nH]nc(C)c32)cc1` (stereo not shown) [Compound 11e, 6-Amino-4-(5-methoxy-2-((4-methoxybenzyl)oxy)phenyl)-3-methyl-1,4-dihydropyrano[2,3-c]pyrazole-5-carbonitrile], for which the IC50 was found to be 458 ± 16.2 nM. Moreover, the inhibition at 0.1 µM (PDE2) was 17.5%. For the same compound, the inhibition at 0.5 µM (PDE2, compound at 0.5 μM) was determined as 48%.

Regarding `COc1ccc(COc2cc(OC)ccc2C2C(C#N)=C(N)Oc3[nH]nc(C)c32)cc1` (stereo not shown) [Compound 11a, 6-Amino-4-(4-methoxy-2-((4-methoxybenzyl)oxy)phenyl)-3-methyl-1,4-dihydropyrano[2,3-c]pyrazole-5-carbonitrile], the inhibition at 0.5 µM (PDE2, compound at 0.5 μM) was found to be 27%.

Turning to `COc1ccc(C2C(C#N)=C(N)Oc3[nH]nc(C)c32)c(OCc2ccc(Cl)cc2)c1` (stereo not shown) [Compound 11c, 6-Amino-4-(2-((4-chlorobenzyl)oxy)-4-methoxyphenyl)-3-methyl-1,4-dihydropyrano[2,3-c]pyrazole-5-carbonitrile], for the setting “PDE2, compound at 0.5 μM”, the inhibition at 0.5 µM came out at 29%.

Turning to `COc1ccc(OCCCc2ccc(C(F)(F)F)cc2)c(C2C(C#N)=C(N)Oc3[nH]nc(C)c32)c1` (stereo not shown) [Compound 11o, 6-Amino-4-(5-methoxy-2-(3-(4-(trifluoromethyl)phenyl)propoxy)phenyl)-3-methyl-1,4-dihydropyrano[2,3-c]pyrazole-5-carbonitrile], the inhibition at 0.5 µM (PDE2, compound at 0.5 μM) was 8.2%.

In the case of `COc1cc(OCc2ccc(Cl)cc2)cc(C2C(C#N)=C(N)Oc3[nH]nc(C)c32)c1` (stereo not shown) [Compound 4c, 6-Amino-4-(3-((4-chlorobenzyl)oxy)-5-methoxyphenyl)-3-methyl-1,4-dihydropyrano[2,3-c]pyrazole-5-carbonitrile], for the setting “PDE2, compound at 0.5 μM”, the inhibition at 0.5 µM amounted to 43.4%.

`COc1ccc(OC(=O)c2ccc(OC(F)(F)F)cc2)c(C2C(C#N)=C(N)Oc3[nH]nc(C)c32)c1` (stereo not shown) [Compound 8a, 2-(6-Amino-5-cyano-3-methyl-1,4-dihydropyrano[2,3-c]pyrazol-4-yl)-4-methoxyphenyl-4-(trifluoromethoxy)benzoate]: the inhibition at 0.5 µM (PDE2, compound at 0.5 μM) was determined as 13.4%.

`COc1cc(C2C(C#N)=C(N)Oc3[nH]nc(C)c32)c(OCc2ccc(C(F)(F)F)cc2)cc1Cl` (stereo not shown) [Compound 11t, 6-Amino-4-(4-chloro-5-methoxy-2-((4-(trifluoromethyl)benzyl)oxy)phenyl)-3-methyl-1,4-dihydropyrano[2,3-c]pyrazole-5-carbonitrile]: the inhibition at 0.5 µM (PDE2, compound at 0.5 μM) was determined as 10.3%.

On to `COc1ccc(OCc2ccc(C(F)(F)F)cc2)c(C2C(C#N)=C(N)Oc3[nH]nc(C)c32)c1` (racemic) [Compound 11h, 6-Amino-4-(5-methoxy-2-((4-(trifluoromethyl)benzyl)oxy)phenyl)-3-methyl-1,4-dihydropyrano[2,3-c]pyrazole-5-carbonitrile], for which the IC50 was 75.5 ± 2 nM. The inhibition at 0.1 µM (PDE2) was 63.3%. The inhibition at 0.5 µM (PDE2, compound at 0.5 μM) came out at 87.3%.

Turning to `COc1ccc(C2C(C#N)=C(N)Oc3[nH]nc(C)c32)c(OCc2ccccc2)c1` (stereo not shown) [Compound 11b, 6-Amino-4-(2-(benzyloxy)-4-methoxyphenyl)-3-methyl-1,4-dihydropyrano [2,3-c] pyrazole-5-carbonitrile], the inhibition at 0.5 µM (PDE2, compound at 0.5 μM) was 14.3%.

On to `COc1ccc(OC(=O)CCCc2ccc(Cl)cc2)c(C2C(C#N)=C(N)Oc3[nH]nc(C)c32)c1` (stereo not shown) [Compound 8d, 2-(6-Amino-5-cyano-3-methyl-1,4-dihydropyrano[2,3-c]pyrazol-4-yl)-4-methoxyphenyl-4-(4-chlorophenyl)butanoate], for which, where the note is “PDE2, compound at 0.5 μM”, the inhibition at 0.5 µM stood at 6.12%.

In the case of `COc1ccc(OCc2ccc(F)cc2)c(C2C(C#N)=C(N)Oc3[nH]nc(C)c32)c1` (stereo not shown) [Compound 11g, 6-Amino-4-(2-((4-fluorobenzyl)oxy)-5-methoxyphenyl)-3-methyl-1,4-dihydropyrano[2,3-c]pyrazole-5-carbonitrile], the IC50 was determined as 807 ± 15.3 nM. The inhibition at 0.1 µM (PDE2) was 15.1%. The inhibition at 0.5 µM (PDE2, compound at 0.5 μM) came to 44.4%.

For `COc1ccc(C2C(C#N)=C(N)Oc3[nH]nc(C)c32)cc1OCc1ccc(Cl)cc1` (stereo not shown) [4a (LZ77), 6-Amino-4-(3-((4-chlorobenzyl)oxy)-4-methoxyphenyl)-3-methyl-1,4-dihydropyrano[2,3-c]pyrazole-5-carbonitrile], the IC50 came to 407 ± 37.7 nM. Further, the inhibition at 0.1 µM (PDE2) is 18.2%. The inhibition at 0.5 µM (PDE2, compound at 0.5 μM) was found to be 57.2%.

On to `COc1ccc(OCc2ccc(C(F)(F)F)cc2)c(C2C(C#N)=C(N)Oc3[nH]nc(C)c32)c1` (single isomer, unassigned; (-)) [(−)-11h], for which the inhibition at 0.5 µM (PDE2, compound at 0.5 μM) was determined as 87.3%. Further, the “PDE2 inhibitory activity of resolved isomer (in words)” value (after chiral resolution of 11h) is “almost inactive”.

With `CCCCCC[C@@H]([C@@H](C)O)n1cnc2c(N)ncnc21` (racemic) [EHNA, erythro-9-(2-hydroxy-3-nonyl) adenine, reference compound], the IC50 was determined as 2460 nM.

As to `COc1ccc(OCCc2ccc(C(F)(F)F)cc2)c(C2C(C#N)=C(N)Oc3[nH]nc(C)c32)c1` (stereo not shown) [Compound 11n, 6-Amino-4-(5-methoxy-2-(4-(trifluoromethyl)phenethoxy)phenyl)-3-methyl-1,4-dihydropyrano[2,3-c]pyrazole-5-carbonitrile], the inhibition at 0.5 µM (PDE2, compound at 0.5 μM) was 20.7%.

As for `COc1ccc([C@H]2C(C#N)=C(N)Oc3[nH]nc(C)c32)cc1OCc1ccc(Cl)cc1` [(R)-LZ77], the IC50 is 261 ± 11.2 nM. The inhibition at 0.1 µM (PDE2) amounted to 30.4%. Under “PDE2, compound at 0.5 μM”, the inhibition at 0.5 µM turned out to be 67.5%.

Take `Cc1n[nH]c2c1C(c1cc(O)ccc1OCc1ccc(C(F)(F)F)cc1)C(C#N)=C(N)O2` (stereo not shown) [Compound 11m, 6-Amino-4-(5-hydroxy-2-((4-(trifluoromethyl)benzyl)oxy)phenyl)-3-methyl-1,4-dihydropyrano[2,3-c]pyrazole-5-carbonitrile]: for the setting “PDE2, compound at 0.5 μM”, the “Inhibition Ratio (%) 0.5 μM” value is “no inhibition” and the inhibition at 0.5 µM was 0%.

On to `COc1ccc(OCc2ccc(C(F)(F)F)cc2)c(C2C(C#N)=C(N)Oc3[nH]nc(-c4ccccc4)c32)c1` (stereo not shown) [Compound 11s, 6-Amino-4-(5-methoxy-2-((4-(trifluoromethyl)benzyl)oxy)phenyl)-3-phenyl-1,4-dihydropyrano[2,3-c]pyrazole-5-carbonitrile], for which the IC50 stood at 154 ± 6.2 nM. In addition, under “PDE2”, the inhibition at 0.1 µM stood at 46.3%. The inhibition at 0.5 µM (PDE2, compound at 0.5 μM) was determined as 75.3%.

With `Cc1ccc(OCc2ccc(C(F)(F)F)cc2)c(C2C(C#N)=C(N)Oc3[nH]nc(C)c32)c1` (stereo not shown) [Compound 11k, 6-Amino-3-methyl-4-(5-methyl-2-((4-(trifluoromethyl)benzyl)oxy)phenyl)-1,4-dihydropyrano[2,3-c]pyrazole-5-carbonitrile], the IC50 was 154 ± 3.3 nM. In addition, the inhibition at 0.1 µM (PDE2) amounted to 38.3%. In addition, the inhibition at 0.5 µM (PDE2, compound at 0.5 μM) is 72%.

Regarding `COc1ccc(OC(=O)CCc2ccc(Cl)cc2)c(C2C(C#N)=C(N)Oc3[nH]nc(C)c32)c1` (stereo not shown) [Compound 8c, 2-(6-Amino-5-cyano-3-methyl-1,4-dihydropyrano[2,3-c]pyrazol-4-yl)-4-methoxyphenyl-3-(4-chlorophenyl)propanoate], where the note is “PDE2, compound at 0.5 μM”, the inhibition at 0.5 µM was determined as 4.12%.

Turning to `COc1ccc(OCc2ccc(OC(F)(F)F)cc2)c(C2C(C#N)=C(N)Oc3[nH]nc(C)c32)c1` (stereo not shown) [Compound 11i, 6-Amino-4-(5-methoxy-2-((4-(trifluoromethoxy)benzyl)oxy)phenyl)-3-methyl-1,4-dihydropyrano[2,3-c]pyrazole-5-carbonitrile], where the note is “PDE2, compound at 0.5 μM”, the inhibition at 0.5 µM came out at 48.8%.

Regarding `COc1cc(OCc2ccc(C(F)(F)F)cc2)cc(C2C(C#N)=C(N)Oc3[nH]nc(C)c32)c1` (stereo not shown) [Compound 4b, 6-Amino-4-(3-methoxy-5-((4-(trifluoromethyl)benzyl)oxy)phenyl)-3-methyl-1,4-dihydropyrano[2,3-c]pyrazole-5-carbonitrile], under “PDE2, compound at 0.5 μM”, the inhibition at 0.5 µM was 14.1%.

Regarding `COc1ccc(OCc2ccc(C(F)(F)F)cc2)c(C2C(C#N)=C(N)Oc3[nH]ncc32)c1` (stereo not shown) [Compound 11r, 6-Amino-4-(5-methoxy-2-((4-(trifluoromethyl)benzyl)oxy)phenyl)-1,4-dihydropyrano[2,3-c]pyrazole-5-carbonitrile], the IC50 is 445.3 ± 3.4 nM. Also, the inhibition at 0.1 µM (PDE2) was 22.7%. The inhibition at 0.5 µM (PDE2, compound at 0.5 μM) turned out to be 60.5%.
